Data taken from paper PMC9919513, “A Practical Approach to Bicyclic Carbamoyl Pyridones with Application to the Synthesis of HIV-1 Integrase Strand Transfer Inhibitors” (Molecules, 2023).
Read-outs that look alike come from different tables or passages of the source.

System: HIV-1 vectors that carry WT IN
Experiment: Single-round HIV-1 replication antiviral assay, wild-type IN
Type: cell-based
Settings: for Ratio of the antiviral potencies after and before hydrogenation (WT): EC50 of saturated 7 over EC50 of unsaturated 6, WT IN; for EC50: 48 h
Protocol: The bicyclic metal chelating carbamoyl pyridone moiety is common to second-generation tricyclic INSTIs (3, 4, and 5, Figure 1). Analogs of the current study are simplified analogs that lack a third ring. […] The halogen substitution pattern of the benzylamide moiety can affect inhibitory potencies of INSTIs. We determined the antiviral potencies of our compounds in single round HIV-1 replication assays using viral constructs with wild-type IN [31]. Cytotoxicities were determined as previously described. […] In general, the potencies of bicyclic analogs 6 having an unsaturated bond at the C4 position were insensitive to differences in N-methyl substituents. […] Analogs 6g and 6h represent simplified analogs of DTG (3) and CAB (5), respectively, in which the third ring (C-ring) is opened and having doble bond in B-ring, but lacking α-methyl stereochemistry.
Human embryonic kidney cell culture cell line 293 was acquired from the American Type Culture Collection (ATCC). The human osteosarcoma cell line, HOS, was obtained from Dr. Richard Schwartz (Michigan State University, East Lansing, MI, USA) and grown in Dulbecco’s modified Eagle’s medium (Invitrogen, Carlsbad, CA, USA) supplemented with 5% (v/v) fetal bovine serum, 5% newborn calf serum, and penicillin (50 units/mL) plus streptomycin (50 µg/mL; Quality Biological, Gaithersburg, MD, USA). The transfection vector, pNLNgoMIVR-ΔLUC was made from pNLNgoMIVR-ΔEnv.HSA by removing the HSA reporter gene and replacing it with a luciferase reporter gene between the NotI and XhoI restriction sites. To produce the new IN mutant S230N used in this study, the IN open reading frame was removed from pNLNgoMIVR-ΔENV.LUC by digestion with KpnI and SalI, and the resulting fragment was inserted between the KpnI and SalI sites of pBluescript KS+. Using that construct as the wild-type template, we prepared the following HIV-1 IN mutant S230N using the QuikChange II XL site-directed mutagenesis kit (Agilent Technologies, Santa Clara, CA, USA) protocol. The following sense oligonucleotides were used with matching cognate antisense oligonucleotides (not shown) (Integrated DNA Technologies, Coralville, IA, USA) in the mutagenesis: S230N 5′-[…]-3′. The DNA sequence of the IN mutant S230N construct was verified independently by DNA sequence determination. The mutated IN coding sequences from pBluescript KS+ were then subcloned into pNLNgoMIVR-ΔEnv.LUC (between the KpnI and SalI sites) to produce mutant HIV-1 constructs, which were also checked by DNA sequencing. […]. On the day prior to transfection, 293 cells were plated on 100 mm diameter dishes at a density of 1.5 × 10^6 cells per plate. Next, 293 cells were transfected with 16 µg of pNLNgoMIVR^-ΔLUC and 4 µg of pHCMV-g (obtained from Dr. Jane Burns, University of California, San Diego) using the calcium phosphate method. At approximately 6 h after the calcium phosphate precipitate was added, 293 cells were washed twice with phosphate-buffered saline (PBS) and incubated with fresh media for 48 h. The virus-containing supernatants were then harvested, clarified by low-speed centrifugation, filtrated, and diluted for preparation in antiviral infection assays. On the day prior to the screen, HOS cells were seeded in a 96-well luminescence cell culture plate at a density of 4000 cells in 100 µL per well. On the day of the screen for cellular cytotoxicity determination, cells were treated with compounds from a concentration range of 250 µM to 0.05 µM and then incubated at 37 °C for 48 h. On the day of the screen for antiviral activity infection assays, cells were treated with compounds from a concentration range of 5 µM to 0.0001 µM using 11 serial dilutions and then incubated at 37 °C for 3 h. After compound incorporation and activation in the cell, 100 µL of virus-stock (WT or mutant) diluted to achieve a luciferase signal between 0.2 and 1.5 Relative Luciferase Units (RLUs) was added to each well and further incubated at 37 °C for 48 h. […]

[1] = Human immunodeficiency virus 1, HOS, read-out: EC50, antiviral potency, WT IN, VSV-g-pseudotyped HIV-1 luciferase vector with WT IN, HOS cells, 48 h
[2] = read-out: EC50, antiviral potency, WT IN, VSV-g-pseudotyped HIV-1 luciferase vector with WT IN, HOS cells

O=C(NCc1ccc(F)cc1F)c1cn2c(c(O)c1=O)C(=O)N(CCCCO)CC2 [Compound 7e, N-(2,4-Difluorobenzyl)-9-hydroxy-2-(4-hydroxybutyl)-1,8-dioxo-1,3,4,8-tetrahydro-2H-pyrido [1,2-a]pyrazine-7-carboxamide]
Ratio of the antiviral potencies after and before hydrogenation (WT): 4.6
EC50 [1]: 75.7 ± 7.4 nM

O=C(NCc1ccc(F)cc1F)c1cn2ccn(CCCCCO)c(=O)c2c(O)c1=O [Compound 6d, N-(2,4-Difluorobenzyl)-9-hydroxy-2-(5-hydroxypentyl)-1,8-dioxo-1,8-dihydro-2H-pyrido [1,2-a]pyrazine-7-carboxamide]
EC50 [1]: ~11 nM
EC50 [2]: 10.8 ± 1.7 nM

O=C(NCc1ccc(F)cc1F)c1cn2ccn(CCCCCCO)c(=O)c2c(O)c1=O [Compound 6c, N-(2,4-Difluorobenzyl)-9-hydroxy-2-(6-hydroxyhexyl)-1,8-dioxo-1,8-dihydro-2H-pyrido [1,2-a]pyrazine-7-carboxamide]
EC50 [1]: 4.8 ± 0.9 nM

O=C(NCc1ccc(F)cc1F)c1cn2c(c(O)c1=O)C(=O)N(CCCCCCO)CC2 [Compound 7c, N-(2,4-Difluorobenzyl)-9-hydroxy-2-(6-hydroxyhexyl)-1,8-dioxo-1,3,4,8-tetrahydro-2H-pyrido [1,2-a]pyrazine-7-carboxamide]
Ratio of the antiviral potencies after and before hydrogenation (WT): 6.6
EC50 [1]: 31.7 ± 3.8 nM

O=C(NCc1ccc(F)cc1F)c1cn2ccn(CCCCO)c(=O)c2c(O)c1=O [Compound 6e, N-(2,4-Difluorobenzyl)-9-hydroxy-2-(4-hydroxybutyl)-1,8-dioxo-1,8-dihydro-2H-pyrido [1,2-a]pyrazine-7-carboxamide]
EC50 [1]: ~17 nM
EC50 [2]: 16.6 ± 2 nM
